Measured values reported in US20200268702A1, “METHODS OF TREATING […]” (Amarin Pharmaceuticals Ireland Limited, priority 2013, published 2020).

Test system: patients with fasting triglyceride levels ≥200 mg/dl and <500 mg/dl despite statin therapy
Experiment: ANCHOR study: 12-week placebo-controlled study of >96% E-EPA on statin therapy, metabolic syndrome subgroup
Assay type: in vivo, human
Experimental: A multi-center, placebo-controlled, randomized, double-blind, 12-week study was performed to evaluate the efficacy and safety of >96% E-EPA in patients with fasting triglyceride levels ≥200 mg/dl and <500 mg/dl despite statin therapy (the mean of two qualifying entry values needed to be ≥185 mg/dl and at least one of the values needed to be ≥200 mg/dl). The primary objective of the study was to determine the efficacy of >96% E-EPA 2 g daily and 4 g daily, compared to placebo, in lowering fasting TG levels in patients with high risk for cardiovascular disease and with fasting TG levels ≥200 mg/dL and <500 mg/dL, despite treatment to LDL-C goal on statin therapy.
The population for this study was men and women >18 years of age with a body mass index ≤45 kg/m^2 with fasting TG levels greater than or equal to 200 mg/dl and less than 500 mg/dl and on a stable does of statin therapy (with or without ezetimibe). The statin was atorvostatin, rosuvastatin or simvastatin. The dose of statin must have been stable for ≥4 weeks prior to the LDL-C/TG baseline qualifying measurement for randomization. The statin dose was optimized such that the patients are at their LDL-C goal at the LDL-C/TG baseline qualifying measurements. The same statin at the same dose was continued until the study ended.
Approximately 702 patients were randomized at approximately 80 centers in the U.S. The study was a 18- to 20-week, Phase 3, multi-center study consisting of 2 study periods: (1) A 6- to 8-week screening period that included a diet and lifestyle stabilization, a non-statin lipid-altering treatment washout, and an LDL-C and TG qualifying period and (2) A 12-week, double-blind, randomized, placebo-controlled treatment period.
After confirmation of qualifying fasting LDL-C and TG values, eligible patients entered a 12-week, randomized, double-blind treatment period. At Visit 4 (Week 0), patients were randomly assigned to 1 of the following treatment groups: • >96% E-EPA 2 g daily, • >96% E-EPA 4 g daily, or • Placebo.
>96% E-EPA was provided in 1 g liquid-filled, oblong, gelatin capsules. The matching placebo capsule was filled with light liquid paraffin and contained 0 g of >96% E-EPA. >96% E-EPA capsules were to be taken with food (i.e. with or at the end of a meal).
During the double-blind treatment period, patients were to take 2 capsules (>96% E-EPA or matching placebo) in the morning and 2 capsules in the evening for a total of 4 capsules per day. • Patients in the >96% E-EPA 2 g/day treatment group received 1>96% E-EPA 1 g capsule and 1 matching placebo capsule in the morning and in the evening. • Patients in the >96% E-EPA 4 g/day treatment group received 2>96% E-EPA 1 g capsules in the morning and evening.
The primary efficacy variable for the double-blind treatment period was percent change in TG from baseline to Week 12 endpoint. […]

[1] = 4 g/day, week 12, listed as IPE

CC/C=C\C/C=C\C/C=C\C/C=C\C/C=C\CCCC(=O)OCC [AMR101, ethyl eicosapentaenoate]
Apo B, Change from Baseline, % (2 g/day, week 12): 3.3% | Apo B, End of Treatment, median (IQR) (2 g/day, week 12): 95.0 (23.00) mg/dL | Apo B, Median % Change From Baseline vs Placebo (2 g/day, week 12): −2.6% | HDL-C, Change from Baseline, % (2 g/day, week 12): 2.2% | HDL-C, End of Treatment, median (IQR) (2 g/day, week 12): 38.0 (12.00) mg/dL | HDL-C, Median % Change From Baseline vs Placebo (2 g/day, week 12): −1.4% | LDL-C, Change from Baseline, % (2 g/day, week 12): 2.5% | LDL-C, End of Treatment, median (IQR) (2 g/day, week 12): 87.0 (28.00) mg/dL | LDL-C, Median % Change From Baseline vs Placebo (2 g/day, week 12): −2.4% | Non-HDL-C, Change from Baseline, % (2 g/day, week 12): 2.7% | Non-HDL-C, End of Treatment, median (IQR) (2 g/day, week 12): 134.0 (44.00) mg/dL | Non-HDL-C, Median % Change From Baseline vs Placebo (2 g/day, week 12): −4.4% | TG, Change from Baseline, % (2 g/day, week 12): −5.8% | TG, End of Treatment, median (IQR) (2 g/day, week 12): 246.0 (117.00) mg/dL | TG, Median % Change From Baseline vs Placebo (2 g/day, week 12): −10.3% | hsCRP, Change from Baseline, % (2 g/day, week 12): 8.4% | hsCRP, End of Treatment, median (IQR) (2 g/day, week 12): 2.5 (3.35) mg/L | hsCRP, Median % Change From Baseline vs Placebo (2 g/day, week 12): −7.6% | Apo B, Change from Baseline, % (4 g/day, week 12): −2.2% | Apo B, End of Treatment, median (IQR) (4 g/day, week 12): 89.0 (26.00) mg/dL | HDL-C, Change from Baseline, % (4 g/day, week 12): 0.0% | HDL-C, End of Treatment, median (IQR) (4 g/day, week 12): 36.0 (12.00) mg/dL | HDL-C, Median % Change From Baseline vs Placebo (4 g/day, week 12): −4.0% | LDL-C, Change from Baseline, % (4 g/day, week 12): 2.1% | LDL-C, End of Treatment, median (IQR) (4 g/day, week 12): 83.0 (31.00) mg/dL | Non-HDL-C, Change from Baseline, % (4 g/day, week 12): −5.3% | Non-HDL-C, End of Treatment, median (IQR) (4 g/day, week 12): 121.0 (37.00) mg/dL | TG, Change from Baseline, % (4 g/day, week 12): −17.4% | TG, End of Treatment, median (IQR) (4 g/day, week 12): 221.0 (93.50) mg/dL | hsCRP, Change from Baseline, % (4 g/day, week 12): −3.4% | hsCRP, End of Treatment, median (IQR) (4 g/day, week 12): 2.0 (3.00) mg/L | Apo B, Median % Change From Baseline vs Placebo [1]: −8.8% | LDL-C, Median % Change From Baseline vs Placebo [1]: −5.2% | Non-HDL-C, Median % Change From Baseline vs Placebo [1]: −13.5% | TG, Median % Change From Baseline vs Placebo [1]: −21.7% | hsCRP, Median % Change From Baseline vs Placebo [1]: −23.0%
